Laboratory results reported in patent US9956201B2, “Compositions comprising bioreversible derivatives of hydroxy N-substituted-2-aminotetralins, and related dosage forms” (Spriaso LLC, priority 2014, dated 2018).

Experiments:
[1] = Apparent lipophilicity log D at pH 7.4 (octanol / pH 7.4 surfactant free buffer); format: physicochemical
Excerpt: The log DpH=7.4 value is a log of the distribution efficiency (ratio of concentrations of the disclosed bioreversible derivatives in octanol solvent to a pH 7.4 aqueous surfactant free buffer media).
TABLE 5 summarized the intrinsic lipophilicity and apparent lipophilicity of hydroxy N-substituted-2-aminotetralins in comparison with those of some examples of the corresponding bioreversible derivatives according to the disclosure.

[2] = no method; cited from earlier work
[3] = cited from earlier work
[4] = Pharmacokinetics of dosage forms at varied doses of Composition 1c-10 containing caprate ester A10; format: in vivo; settings: serum rotigotine, human, oral, Composition 1c-10 with A10
Method: Serial blood samples were drawn at predetermined time (e.g., t=0, 12, 24, etc.) and analyzed for rotigotine concentration using a validated HPLC-MS/MS analytical method. The rotigotine Cmax, ratio of rotiogtine peak levels to rotigotine equivalent, Cmax/mg, rotiogotine Cavgt1-t2, rotigotine steady state maximum concentration, Css-max, rotigotine AUCt1-t2 and ratio of rotigotine area under the curve to rotigotine equivalent dose in mg, AUCt1-t2/mg, were calculated in the serum of the subjects. Pharmacokinetic and statistical analyses were performed on the data obtained from the subjects, the pharmacokinetic parameters were defined as follows:
[…] Serial blood samples were drawn for the human subjects at predetermined time (e.g., t=0, 12, 24, etc.) and analyzed to determine pharmacokinetic parameters in the serum of the subjects.

[5] = dose 0.1 mg as rotigotine equivalent
[6] = dose 500 mg as rotigotine equivalent

Apparent Lipophilicity logD7.4 [1] | SMILES | pKa [2] | further results
6.5-7.5 | CCCCCCCCCCCC(=O)Oc1cccc2c1CC(N(CCC)CCC)CC2 (stereo not drawn) [Compound C7, Laurate (C12) Ester of 8-OH-DPAT] |  | 
 | CCCN(CCC)C1CCc2cccc(O)c2C1 (stereo not drawn) [Compound C1, 8-hydroxy-N,N-dipropyl-2-aminotetralin] | about 10.54 | 
 | CCCN(CCC)C1CCc2c(O)cccc2C1 (stereo not drawn) [Compound C3, 5-hydroxy-N,N-dipropyl-2-aminotetralin] | about 10.5 | 
6.5-7.5 | CCCCCCCCCCCCCCCC(=O)Oc1cccc2c1CCC(NCCC)C2 (stereo not drawn) [Compound B5] |  | 
 | CCCN(CCc1cccs1)[C@H]1CCc2c(O)cccc2C1 [Compound N-0923] |  | bioavailability after oral administration ([3]; animal model): about 0.5%
>4 | CCCCCCCCCC(=O)Oc1cccc2c1CCC(N(CCC)CCc1cccs1)C2 (stereo not drawn) [Compound A10] |  | Mean AUC/mg [4, 5]: <1.25 × 10^−9 hr..^−1; Mean Cmax/mg [4, 5]: <1e-10 mL⁻¹; Mean AUC/mg [4, 6]: >188 × 10^−6 hr..^−1; Mean Cmax/mg [4, 6]: >1.2e-05 mL⁻¹
 | CCCN(CCC)C1CCc2ccc(O)cc2C1 (stereo not drawn) [Compound C2, 7-hydroxy-N,N-dipropyl-2-aminotetralin] | about 10.54 | 

SMILES | Apparent Lipophilicity logD7.4 [1] | pKa [2] | further results
CCCN[C@H]1CCc2c(O)cccc2C1 [Compound B1, (6S)-(−)-5-hydroxy-N-propyl-2-aminotetralin] | −0.5 | about 10.6 | 
CCCN(CCc1cccs1)[C@H]1CCc2c(O)cccc2C1 [Compound A1, (S)-6-[propyl(2-thiophen-2-ylethyl)amino]-5,6,7,8-tetrahydronaphthalen-1-ol] | 1-1.9 |  | activity upon oral administration ([3]; preclinical data): zero to limited activity
